What was measured:
melanin [1] = assay: in vitro; settings: pig, pH 7.4
Experimental: (§1) The traditional melanin binding assay was conducted with melanin from the porcine RPE-choroid. We used previously published methods for melanin isolation and drug binding. Fresh melanin suspension and test compound solutions were prepared before each experiment. The melanin suspension (in PBS, pH 7.4) was sonicated in a bath sonicator for 30 min (Elmasonic S 40 H, Elma Schmidbauer GmbH, Singen, Germany) before the experiment. The incubation with test compounds took place at 37 °C on a shaker (220 rpm), and the melanin concentration in the assay was 1 mg/mL (0.15 mg/well). In the control samples, PBS buffer (pH 7.4) was used instead of the melanin suspension. Three individual replicates were made for each experiment. After 20 h incubation, the samples were centrifuged at 20,000× g for 20 min, and supernatant containing the unbound ligand was collected for analysis.
(§2) Samples having an estimated concentration of 0.5 µM or higher were analyzed with ultra-high pressure liquid chromatography (UPLC) (Acquity UPLC, Waters, Milford, MA, USA) with UV detection (Photodiode Array Detector, Waters, MA, USA). The separation was carried out on a Luna Omega Polar C18 (1.6 μm, 2.1 × 50 mm^2) column (Phenomenex) at 30 °C. Injection volume was 4 µL. Gradient mode was used for all the compounds with an acetonitrile/15 mM phosphate buffer (pH 2) mobile phase. Gradient duration was 3−5 min depending on the sample (levofloxacin, terazosin, and papaverine).
(§3) All internal standards, namely levofloxacin D8, terazosin D8, and papaverine D3, were purchased from Toronto Research Chemicals (Toronto, ON, Canada). […] Injection volumes were 0.2 μL for terazosin, 0.3 µL for levofloxacin, and 0.15 µl for papaverine with a flow through needle injection system. The mobile phase consisted of 0.1% formic acid (Merck, Darmstadt, Germany) in ultrapure water (A) and 100% LC–MS grade acetonitrile (Honeywell, Seelze, Germany) (B). […] The gradient for levofloxacin was the same as for papaverine, but the total run time was 6 min. The flow rate was 0.3 mL/min for all the compounds.
(§4) Mass spectrometric measurements were carried out using a Waters Xevo TQ-S triple quadruple mass spectrometer coupled with an electrospray ionization (ESI) on a positive mode for all three compounds. Optimized MS-parameters were as follows: capillary 1.5 kV (terazosin and papaverine), 3.5 kV (levofloxacin), cone voltage 80 V (terazosin) and 8 V (terazosin D8), 22 V (papaverine and papaverine D3), 28 V (levofloxacin and levofloxacin D8), source temperature 150 °C, and desolvation temperature 500 °C (terazosin) or 450 °C (papaverine and levofloxacin). Nitrogen (AGA, Helsinki, Finland) was used as the desolvation gas (1000 L·h^−1 terazosin, 800 L·h^−1 papaverine and levofloxacin) and the cone gas (150 L·h^−1), argon (AGA, Helsinki, Finland) as the collision gas. Multiple reaction monitoring (MRM) mode was employed for quantification. […] The resulting data were analyzed with Waters MassLynx V4.1 software. To consider the effect of melanin on the analyses, separate samples containing only melanin in PBS (with no test compound) were also studied.
(§5) The binding parameters were determined with Sips isotherm (Equation (2)) as described by Manzanares et al.. B = (Bmax × [L]^n)/(Kd^n + [L]^n)(2) where B is the amount of bound drug (nmol·mg^−^1); Bmax is the maximum binding capacity (nmol·mg^−^1); [L] is the free drug concentration (µM); n is the heterogeneity index (assuming heterogeneity of the surface of the melanin particles); and Kd represents the dissociation constant (µM).

[2] = Traditional melanin binding assay (equilibrium binding, Sips isotherm)
Experimental: as §1, §2, §3, §4, §5

melanin [3] = assay: Prediction of unbound ligand fraction in vivo (human RPE-choroid); settings: human, human RPE-choroid (predicted), 34.8 mg/mL melanin
Experimental: (§6) Unbound ligand fractions in vivo were calculated considering melanin binding as the only driver of nonspecific tissue binding.
(§7) Linear regression was used to describe the relationship between the Kd values obtained with the MST and the predicted unbound ligand fractions in human RPE-choroid obtained with calculations described above.
(§8) The Kd values obtained with MST consider only one class of binding site, whereas the Sips isotherm (the traditional binding assay) depicts different binding energies and binding sites. […] This approach is relevant to evaluate the melanin binding.

[4] = as above; settings: class by predicted fraction unbound in vivo, human RPE-choroid
Experimental: as §6, §7, §8

[5] = Label-free microscale thermophoresis (MST) melanin binding assay; settings: Table S2; 80% excitation power; read-out: Kd, initial fluorescence mode
[6] = as above
Experimental: Synthetic melanin was purchased from Sigma Aldrich (#M8631-100 mg). Melanin nanoparticles were prepared as described earlier by Fan et al., and low-binding pipette tips (Maxymum RecoveryTM pipet tips, Corning Incorporated, Salt Lake City, UT, USA) and tubes (No stick microtubes, Alpha Laboratories, Hampshire, UK) were used with both melanin and melanin nanoparticles. Briefly, melanin was dissolved into 1 N NaOH with a concentration of 2 mg/mL and stirred by vortexing. The solution was neutralized by adding an equal volume of 1 N HCl. […] After the final centrifugation, the resulting nanoparticles were suspended into a small volume of sterile water and freeze-dried for 48–72 h (ModulyoD-230, Thermo Savant, Holbrook, NY, USA), and stored at −20 °C until the binding assays.
Melanin binding of each of the 13 model compounds was determined (for the concentrations in the assay, see Table 1). The dilution series of drugs were prepared onto a PCR plate (4titude PCR Plate, Skirted, #4ti-0740, Brooks Life Sciences, Chelmsford, MA, USA) in phosphate buffered saline (PBS, pH 7.4). […] The compound dilutions (10 µL) were transferred into 0.2 mL PCR tube strips (#TBS0201, Bio-Rad Laboratories, Inc., Hercules, CA, USA), and an equal volume of 1 mg/mL melanin nanoparticle dilution was added, resulting in a final melanin concentration of 0.5 mg/mL. At least three biological replicates (individually incubated dilution series) were prepared for each compound (n = 3–5). A reference sample containing only melanin nanoparticles and PBS (pH 7.4) was included in each assay to determine the unbound state in the thermophoresis experiment. Melanin nanoparticles were incubated with the compounds at room temperature for at least 2 h.
After >2 h incubation, the melanin–ligand complexes were mixed gently with a pipette to ensure melanin solution homogeneity and then transferred into capillaries (Monolith NT.115 Premium capillaries, #MOK025, NanoTemper Technologies GmbH, München, Germany). The samples were analyzed with a Monolith NT.115 pico device using MO.Control Software (both from NanoTemper Technologies GmbH, München, Germany) using nano-blue excitation, LED light adjusted to 60% excitation power, and infrared laser (MST power) set to high. […] The equation is based on the Langmuir binding isotherm. […] Equation (1) is a follows:(1) f(c)=Unbound+(Bound−Unbound)×c+c(target)+Kd−(c+c(target)+Kd)^2−4c×c(target)/2c(target) where f(c) is the fraction bound at a given ligand concentration c. Unbound is either the normalized fluorescence signal (Fnorm; MST mode) or raw fluorescence counts (initial fluorescence mode) of the target alone. Bound is either the normalized fluorescence signal or raw fluorescence counts (initial fluorescence mode) of the melanin–ligand complex. Kd is the dissociation constant or binding affinity, and c (target) is the final concentration of the target in the assay.
The normalized fluorescence is the ratio of relative fluorescence of the selected region after heating (hot region) and relative initial fluorescence before the heating (cold region, i.e., relative fluorescence values before the infrared laser was switched on). The MST traces displaying the changes in the relative fluorescence over time (heating) with the selected hot and cold regions are presented in the Supplementary Materials. In the case of ligand-induced changes in the initial raw fluorescence counts, the raw fluorescence counts prior to the heating were used (initial fluorescence mode). If the ligand-induced fluorescence changes were not observed, the normalized fluorescence signals (MST mode) were used to determine the Kd (for additional information, see the Supplementary Materials). […] Affinity Analysis Software.
Kd determination strategies. The Kd values were tested in both initial fluorescence and the above
described MST modes within the MO Affinity Analysis Software (Fig. S1, Table S1) and the Kd values

fraction unbound at 20 h, 1 µM (melanin [1]): 0.28 | Target Capacity ± SE, traditional method (Sips isotherm) ([2]; Bmax multiplied with 0.5 mg/mL melanin concentration of the MST assay): 36 ± 5.5 µM | n ± SE, traditional method (Sips isotherm) ([2]; heterogeneity index, 1 mg/mL melanin, PBS pH 7.4, 37 °C, 20 h): 0.73 ± 0.02 | Bmax ± SE, traditional method (Sips isotherm) ([2]; maximum binding capacity, 1 mg/mL melanin, PBS pH 7.4, 37 °C, 20 h): 72 ± 11 nmol/mg | Kd ([2]; read-out: Kd ± SE, traditional method (Sips isotherm), 1 mg/mL melanin, PBS pH 7.4, 37 °C, 20 h): 157 ± 56 µM | fraction unbound at 1 µM (melanin [3]): 0.0033 | Kd [5]: 54 µM | Kd ([6]; 0.5 mg/mL (12.5 µM) melanin nanoparticles, PBS pH 7.4, room temperature, 68% confidence, initial fluorescence mode for compounds marked *, otherwise MST mode, read-out: Kd ± Kd Confidence (MST)): 46.5 ± 40.1 µM | Kd ([6]; Table S2, normalized fluorescence, 60% excitation power, read-out: Kd, MST mode (Fnorm)): 47 µM
Structure (SMILES): C[C@H]1COc2c(N3CCN(C)CC3)c(F)cc3c(=O)c(C(=O)O)cn1c23 [Levofloxacin]
Melanin binding class based on traditional assay [4]: high

— article PMC7355663, “Microscale Thermophoresis as a Screening Tool to Predict Melanin Binding of Drugs” (Pharmaceutics, 2020)
